Source: patent US20050271630A1, “Method for treating cancer” (MEDINET Co., Ltd., priority 2004, published 2005)
Where “and” joins values, the source holds several entries; their conditions need not be identical. Equal values may be shown once. Entries after “also recorded” stand apart in the source; their conditions may differ. Where a name gives a salt, the structure may show the parent alone. Read-outs that look alike come from different tables or passages of the source.

Assays:
[1] = system: non-small cell lung carcinoma; experiment: Activated autologous lymphocyte therapy combined with gefitinib or conventional chemotherapy, 15 cases at Seta Clinic; assay type: in vivo, human
Method: Next, studies were conducted for comparing a combination therapy with a conventional chemotherapy other than gefitinib and the method of the present invention.
The response ratio was 46.7%. […] The effective ratio including this was 53.3%. The highest number of administrations was 35, and 10.4 times of treatments on average were conducted.

[2] = system: non-small cell lung carcinoma
[3] = gefitinib alone, 104 cases, Phase 2 study; cited from earlier work
[4] = system: lung carcinoma (adenocarcinoma); experiment: Single case: CD3-LAK plus IRESSA (gefitinib), person; conditions: for Response at examination: gefitinib 250 mg/day + CD3-LAK
[5] = system: GIST (gastrointestinal stromal tumors); conditions: for Side effects: imatinib mesylate 200 mg/day
[6] = 7 chemotherapy / 8 gefitinib cases
[7] = 7 conventional chemotherapy cases / 8 gefitinib cases, with activated autologous lymphocyte therapy
[8] = of 18 cases, gefitinib + CD3-LAK
[9] = of 18 cases, gefitinib + activated autologous lymphocyte therapy

COc1cc2ncnc(Nc3ccc(F)c(Cl)c3)c2cc1OCCCN1CCOCC1 [gefitinib]
Evaluation: Effective (percent) [1, 6]: (62.5%)
Evaluation: No effect (percent) [1, 6]: (37.5%)
The number of cases, Complete response [1, 7]: 0 cases
The number of cases, Long no change [1, 7]: 0 cases
The number of cases, No change [1, 7]: 3 cases
The number of cases, Partial response [1, 7]: 5 cases
The number of cases, Progressive disease [1, 7]: 0 cases
Evaluation: Effective (number of cases) ([1]; complete + partial response + long no change, 7 chemotherapy / 8 gefitinib cases): Effective 5 cases
Cases still alive ([1]; gefitinib group (cases 8-15)): 7 cases
Longest period of survival confirmed ([1]; gefitinib group (cases 8-15)): 743 days
Outcome at the end ([1]; individual cases 1-15, at end of trace period): Alive
Evaluation: No effect (number of cases) ([1]; no change + progressive disease, 7 chemotherapy / 8 gefitinib cases): 3 cases
Evaluation: No effect (percent) ([2]; 18 cases): (38.9%)
New side effect caused by the combined use of the activated autologous lymphocytes ([2]; 18 cases, gefitinib + CD3-LAK): no new side effect
Side effects: diarrhea, percent ([2]; 18 cases, gefitinib + CD3-LAK): 33%
Side effects: nausea, percent ([2]; 18 cases, gefitinib + CD3-LAK): 17%
Side effects: skin symptoms (eruption and dry skin), percent ([2]; 18 cases, gefitinib + CD3-LAK): 89%
Outcome at the end ([2]; individual cases 1-18, at end of trace period, gefitinib 250 mg/day + CD3-LAK): Alive (17×) and Dead
Evaluation: Effective (number of cases) ([2]; of 18 cases, complete + partial response): Effective 11 cases
Side effects: diarrhea, cases [2, 8]: 6 cases
Side effects: nausea, cases [2, 8]: 3 cases
Side effects: skin symptoms (eruption and dry skin), cases [2, 8]: 16 cases
The number of cases, No change [2, 9]: 6 cases
The number of cases, Partial response [2, 9]: 11 cases
The number of cases, Progressive disease [2, 9]: 1 cases
Evaluation: No effect (number of cases) ([2]; of 18 cases, no change + progressive disease): No effect 7 cases
Response ratio [3]: 18%
Lesioned site in CT image ([4]; CT at examination on May 9 versus start of combination therapy (FIGS. 2 and 3)): almost disappeared
Response at examination ([4]; examination on Feb. 13, 2003, therapy started Oct. 2002): considerable response
Response at examination ([4]; examination on May 9 (2003)): remarkable response

Cc1ccc(NC(=O)c2ccc(CN3CCN(C)CC3)cc2)cc1Nc1nccc(-c2cccnc2)n1 [imatinib mesylate]
Duration of partial response since the start of the combination therapy ([5]; Patient 2): 21 months
Increase in liver enzyme levels, GOT ([5]; Patient 2): 58 U/ml
Increase in liver enzyme levels, GPT ([5]; Patient 2): 43 U/ml
Side effects ([5]; Patient 2): itching with eczema of the face and limbs; also recorded: stomach discomfort; also recorded: diarrhea
CA12-5 level ([5]; Patient 2, three months after starting the therapy, 151 U/ml at start): 26 U/ml
Time without tumor progression since start of combination therapy ([5]; Patient 3): 25 months
Side effects ([5]; Patient 3, combination therapy): diarrhea
Side effects at the time of administration ([5]; Patient 3, imatinib mesylate 100 to 300 mg per day oral): side effects on their digestive organs
Change of foci ([5]; Patient 3, one month after the MRI (one year and two months)): decreased slightly
Interpretation of PET ([5]; Patient 3, one year and five months after starting the therapy): no extraordinary accumulation
Size of foci in MRI ([5]; Patient 3, one year and one month after starting the combination therapy, two foci): 1.1 cm and 0.6 cm
Tumor progression ([5]; Patient 3, since the combination therapy was started): had not progressed
